Measurements: patent US20180338927A1, “ETHER CELLULOSE DERIVATIVE MICROPARTICLE” (Toray Industries, Inc., priority 2015, published 2018)
Structures can show the parent of a compound that is named as a salt.

test: Comparison of supported amounts by HPLC (Test Example 8); format: physicochemical; settings: porous Example 6 microparticles (Examples 10 to 15) versus raw material ethyl cellulose powder (Comparative Examples 6 to 11)
Procedure: The supported amount ratio of a physiologically active substance between microparticles in an example and microparticles in a comparative example supporting the same physiologically active substance was calculated on the basis of the following equation. HPLC measurement was carried out as follows. After weighing 25 mg each of the microparticles in the examples and the comparative examples, the microparticles were respectively put in 50-mL volumetric flasks. Each type of microparticles was completely dissolved in 5 mL of ethanol added, and the solution was diluted with deionized water added and passed through a 0.45-μm filter to provide an HPLC sample. The sample was measured under the same conditions as for Test Example 5.

Compound	Support amount ratio (=example/comparative example)
CC(C)Cc1ccc(C(C)C(=O)O)cc1 (stereo not drawn) [Ibuprofen, ibuprofen]	1.2
O=C(O)c1ccccc1O [Salicylic acid, salicylic acid]	1.6
CC(=O)Nc1ccc(O)cc1 [Acetaminophen, acetaminophen]	1.4
Cc1ncc(C[n+]2csc(CCO)c2C)c(N)n1 [Thiamine hydrochloride, thiamine hydrochloride]	10.7
Cn1c(=O)c2[nH]cnc2n(C)c1=O [Theophylline, theophylline]	1.2
C=C[C@H]1C[N@@]2CC[C@H]1C[C@H]2[C@H](O)c1ccnc2ccc(OC)cc12 [Quinine hydrochloride dihydrate, quinine hydrochloride dihydrate]	1.8
